Test results: patent US6531613B1 (3M Innovative Properties Company, priority 2001, dated 2003)

Tests used:
[1] = type: physicochemical; details: for Dye Concentration in Acetone at RT: 72 h
Description: Examples 3-4 and Comparative Example A were prepared by placing 60-100 mg of each of the compounds of Examples 1-2 and 6-methoxy-14H-anthra(2,1,9-mna)thioxanthene-14-one (described by […] et al.) in a vial with 5.0 ml acetone. […] Each vial was hand shaken and the solution was filtered using a 0.45 micron polytetrafluoroethylene (PTFE) filter commercially available from VWR Scientific Products, West Chester, Pa. under the trade designation “Acrodisc 13CR PTFE”. The amount of fluorescent dye in the saturated acetone solution was determined by measuring the major dye absorption band at 535 nm using a UV-Vis Spectrophotometer commercially available from Shimadzu Scientific Instruments, Inc., Columbia, Md. under the trade designation “Shimadzu model UV-2401PC”. Dye concentrations were calculated by measuring the absorbance of the saturated acetone solution, and then diluting that solution until absorbance of the resulting solution was below 3. The dyes were assumed to have equal absorbance per mole. Using the dilution and an absorbance coefficient of 16,100 A/mol/L (coefficient obtained in acetone for the dye of Example 2) and assuming a Beer's Law relationship, the concentration of dye in each saturated solution was calculated and is set out in TABLE I.

Structure (SMILES)	solubility in acetone relative to Comparative Example A [1]	Dye Concentration in Acetone at RT [1]	melting point
CC(C)CC(CC(C)C)Oc1cc2c3ccccc3c(=O)c3ccc4c5ccccc5sc1c4c32 [Example 2, 6-(1-Isobutyl-3-methylbutoxy)-14H-anthra[2,1,9-mna]thioxanthene-14-one]	improved solubility	2.98 mg/mL	
CCCCC(CC)COc1cc2c3ccccc3c(=O)c3ccc4c5ccccc5sc1c4c32 (stereo not drawn) [Example 1, 6-[(2-Ethylhexyl)oxy]-14H-anthra[2,1,9-mna]thioxanthene-14-one]	improved solubility	0.96 mg/mL	175 to 177 °C
COc1cc2c3ccccc3c(=O)c3ccc4c5ccccc5sc1c4c32 [A, 6-methoxy-14H-anthra(2,1,9-mna)thioxanthene-14-one, reference compound]		0.06 mg/mL	
